Assay results as given in paper PMC10382584, “Macrocyclization of linear molecules by deep learning to facilitate macrocyclic drug candidates discovery” (Nature Communications, 2023).

Columns and labels:
Test in all cases: biochemical
Set-up in all cases: DiscoveRx KINOMEscan competition binding, percent of DMSO control signal at 100 nM
Conditions in all cases: read-out: Fig. 4a / Percent Control / Compound 1; percent of DMSO control, competition binding
CAMKK1 = CAMKK1 (Homo sapiens, UniProt Q8N5S9)
DAPK2 = DAPK2 (Homo sapiens, UniProt Q9UIK4)
DCAMKL1 = target: T1, DCAMKL1 (Homo sapiens, UniProt O15075)
T1 construct: gene DCLK1

FGFR2 = FGFR2 (Homo sapiens, UniProt P21802)
FLT3(D835V) = FLT3(D835V) (Homo sapiens, UniProt P36888, D835V)
GRK2 = GRK2 (Homo sapiens, UniProt P25098)
GRK7 = GRK7 (Homo sapiens, UniProt Q8WTQ7)
IRAK1 = IRAK1 (Homo sapiens, UniProt P51617)
MARK2 = MARK2 (Homo sapiens, UniProt Q7KZI7)
MERTK = MERTK (Homo sapiens, UniProt Q12866)
NDR2 = target: T2, NDR2 (Homo sapiens, UniProt Q9Y2H1)
T2 construct: gene STK38L

NEK9 = NEK9 (Homo sapiens, UniProt Q8TD19)
PFTK1 = target: T3, PFTK1 (Homo sapiens, UniProt O94921)
T3 construct: gene CDK14

PIK3CA(H1047L) = PIK3CA(H1047L) (Homo sapiens, UniProt P42336, H1047L)
PIP5K2B = target: T4, PIP5K2B (Homo sapiens, UniProt P78356)
T4 construct: gene PIP4K2B

PIP5K2C = target: T5, PIP5K2C (Homo sapiens, UniProt Q8TBX8)
T5 construct: gene PIP4K2C

[1] = target: T6, RSK4(Kin.Dom.2-C-terminal) (Homo sapiens, UniProt Q9UK32)
T6 construct: gene RPS6KA6; Kin.Dom.2-C-terminal

SBK1 = SBK1 (Homo sapiens, UniProt Q52WX2)
SNRK = SNRK (Homo sapiens, UniProt Q9NRH2)
TEC = TEC (Homo sapiens, UniProt P42680)
TESK1 = TESK1 (Homo sapiens, UniProt Q15569)
TNK1 = TNK1 (Homo sapiens, UniProt Q13470)
TXK = TXK (Homo sapiens, UniProt P42681)
VRK2 = VRK2 (Homo sapiens, UniProt Q86Y07)
p38-beta = target: T7, p38-beta (Homo sapiens, UniProt Q15759)
T7 construct: gene MAPK11
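Also: KINOMEscan kinase panel binding assay, signal normalized between DMSO as 100% and a positive control compound as 0%.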

Sequence of DAPK2 (Q9UIK4 whole entry): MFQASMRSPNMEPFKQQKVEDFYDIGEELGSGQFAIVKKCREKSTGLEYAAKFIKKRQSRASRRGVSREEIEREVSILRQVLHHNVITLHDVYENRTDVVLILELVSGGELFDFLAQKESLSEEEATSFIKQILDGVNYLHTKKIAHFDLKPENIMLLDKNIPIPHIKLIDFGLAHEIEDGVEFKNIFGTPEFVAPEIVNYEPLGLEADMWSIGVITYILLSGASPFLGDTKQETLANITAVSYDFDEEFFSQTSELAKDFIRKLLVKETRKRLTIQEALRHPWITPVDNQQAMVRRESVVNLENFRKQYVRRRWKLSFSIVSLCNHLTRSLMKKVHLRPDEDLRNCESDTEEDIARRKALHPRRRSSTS
Sequence of GRK2 (P25098 whole entry): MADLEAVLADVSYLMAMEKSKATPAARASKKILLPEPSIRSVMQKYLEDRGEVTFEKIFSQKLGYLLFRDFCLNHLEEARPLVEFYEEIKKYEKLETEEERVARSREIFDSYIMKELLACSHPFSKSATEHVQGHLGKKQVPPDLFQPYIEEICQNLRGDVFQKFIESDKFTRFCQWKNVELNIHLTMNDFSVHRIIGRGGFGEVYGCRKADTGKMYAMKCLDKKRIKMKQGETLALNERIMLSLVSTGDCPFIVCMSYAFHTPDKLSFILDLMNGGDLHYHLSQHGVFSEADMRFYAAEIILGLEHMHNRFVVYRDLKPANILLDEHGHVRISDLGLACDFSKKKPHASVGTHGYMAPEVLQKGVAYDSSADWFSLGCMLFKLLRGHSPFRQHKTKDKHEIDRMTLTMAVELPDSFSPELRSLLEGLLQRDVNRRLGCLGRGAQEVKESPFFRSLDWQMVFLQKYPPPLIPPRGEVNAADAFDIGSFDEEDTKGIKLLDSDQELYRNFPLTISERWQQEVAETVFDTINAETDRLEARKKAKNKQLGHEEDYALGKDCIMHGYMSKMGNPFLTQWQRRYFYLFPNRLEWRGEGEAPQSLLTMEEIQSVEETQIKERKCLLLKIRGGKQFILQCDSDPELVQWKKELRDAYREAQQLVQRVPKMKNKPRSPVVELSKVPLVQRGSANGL
T4 sequence (P78356 whole entry): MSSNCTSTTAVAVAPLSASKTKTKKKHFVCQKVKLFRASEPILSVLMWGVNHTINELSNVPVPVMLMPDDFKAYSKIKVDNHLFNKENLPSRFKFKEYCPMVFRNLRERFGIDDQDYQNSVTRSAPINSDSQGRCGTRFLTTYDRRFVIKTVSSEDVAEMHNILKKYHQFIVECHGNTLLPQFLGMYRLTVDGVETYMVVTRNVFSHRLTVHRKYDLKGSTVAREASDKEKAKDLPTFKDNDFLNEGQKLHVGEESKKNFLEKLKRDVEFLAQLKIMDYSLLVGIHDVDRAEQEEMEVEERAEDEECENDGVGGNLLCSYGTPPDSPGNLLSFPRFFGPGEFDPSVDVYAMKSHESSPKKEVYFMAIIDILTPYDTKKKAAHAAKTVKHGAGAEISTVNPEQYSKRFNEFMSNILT
Sequence of TNK1 (Q13470 whole entry): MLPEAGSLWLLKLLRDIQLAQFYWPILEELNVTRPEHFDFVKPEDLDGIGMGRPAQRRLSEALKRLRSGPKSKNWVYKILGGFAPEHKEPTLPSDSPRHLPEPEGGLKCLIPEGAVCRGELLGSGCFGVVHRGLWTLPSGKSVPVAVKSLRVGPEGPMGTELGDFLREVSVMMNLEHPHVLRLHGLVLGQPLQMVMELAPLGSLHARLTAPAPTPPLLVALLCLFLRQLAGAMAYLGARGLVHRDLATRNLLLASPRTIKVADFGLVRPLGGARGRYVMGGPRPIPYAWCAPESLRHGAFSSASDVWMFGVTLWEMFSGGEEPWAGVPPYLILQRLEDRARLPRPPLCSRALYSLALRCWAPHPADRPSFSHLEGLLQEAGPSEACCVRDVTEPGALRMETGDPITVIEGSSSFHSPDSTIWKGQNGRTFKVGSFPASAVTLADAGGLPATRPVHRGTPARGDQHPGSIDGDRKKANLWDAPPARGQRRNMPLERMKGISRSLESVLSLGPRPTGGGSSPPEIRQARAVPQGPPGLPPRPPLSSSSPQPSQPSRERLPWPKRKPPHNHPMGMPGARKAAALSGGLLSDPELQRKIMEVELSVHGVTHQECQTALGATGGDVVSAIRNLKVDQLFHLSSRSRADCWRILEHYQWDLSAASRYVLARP
T5 sequence (Q8TBX8 whole entry): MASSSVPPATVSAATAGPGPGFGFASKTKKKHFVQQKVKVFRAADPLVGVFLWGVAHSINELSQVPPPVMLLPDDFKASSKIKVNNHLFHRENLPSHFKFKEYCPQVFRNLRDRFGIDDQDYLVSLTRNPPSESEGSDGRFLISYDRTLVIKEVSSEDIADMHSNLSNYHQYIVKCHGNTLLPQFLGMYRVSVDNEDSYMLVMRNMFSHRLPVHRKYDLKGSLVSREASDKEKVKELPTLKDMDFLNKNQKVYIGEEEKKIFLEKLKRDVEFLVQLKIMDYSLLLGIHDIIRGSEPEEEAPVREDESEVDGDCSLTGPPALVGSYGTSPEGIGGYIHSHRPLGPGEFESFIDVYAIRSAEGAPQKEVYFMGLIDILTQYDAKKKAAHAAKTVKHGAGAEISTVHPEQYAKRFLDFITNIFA
T2 sequence (Q9Y2H1 whole entry): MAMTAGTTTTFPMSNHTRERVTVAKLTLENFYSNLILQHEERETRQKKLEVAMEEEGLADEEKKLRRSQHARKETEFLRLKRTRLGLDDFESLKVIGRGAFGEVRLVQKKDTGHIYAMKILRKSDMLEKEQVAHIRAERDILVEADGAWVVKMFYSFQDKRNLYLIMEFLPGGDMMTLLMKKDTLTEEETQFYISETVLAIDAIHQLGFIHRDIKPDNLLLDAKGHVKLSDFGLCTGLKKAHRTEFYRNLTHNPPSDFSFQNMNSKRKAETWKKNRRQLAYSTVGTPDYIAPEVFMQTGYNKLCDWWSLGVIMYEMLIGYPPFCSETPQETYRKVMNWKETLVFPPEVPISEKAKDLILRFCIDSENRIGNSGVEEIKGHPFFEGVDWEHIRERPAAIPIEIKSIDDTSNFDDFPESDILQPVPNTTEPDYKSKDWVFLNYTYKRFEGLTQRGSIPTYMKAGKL
Sequence of CAMKK1 (Q8N5S9 whole entry): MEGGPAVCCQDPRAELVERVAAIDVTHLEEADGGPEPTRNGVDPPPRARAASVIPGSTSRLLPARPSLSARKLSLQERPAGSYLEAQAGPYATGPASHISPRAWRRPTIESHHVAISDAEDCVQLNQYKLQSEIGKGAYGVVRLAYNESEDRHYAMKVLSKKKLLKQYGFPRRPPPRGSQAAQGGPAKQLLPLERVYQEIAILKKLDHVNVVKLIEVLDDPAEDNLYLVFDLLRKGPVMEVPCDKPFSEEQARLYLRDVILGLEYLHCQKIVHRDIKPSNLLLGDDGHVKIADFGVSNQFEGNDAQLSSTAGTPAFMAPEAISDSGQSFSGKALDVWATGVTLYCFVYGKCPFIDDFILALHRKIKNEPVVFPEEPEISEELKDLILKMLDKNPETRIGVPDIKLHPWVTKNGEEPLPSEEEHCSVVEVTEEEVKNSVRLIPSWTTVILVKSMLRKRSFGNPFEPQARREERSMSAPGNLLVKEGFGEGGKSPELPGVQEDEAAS
T3 sequence (O94921 whole entry): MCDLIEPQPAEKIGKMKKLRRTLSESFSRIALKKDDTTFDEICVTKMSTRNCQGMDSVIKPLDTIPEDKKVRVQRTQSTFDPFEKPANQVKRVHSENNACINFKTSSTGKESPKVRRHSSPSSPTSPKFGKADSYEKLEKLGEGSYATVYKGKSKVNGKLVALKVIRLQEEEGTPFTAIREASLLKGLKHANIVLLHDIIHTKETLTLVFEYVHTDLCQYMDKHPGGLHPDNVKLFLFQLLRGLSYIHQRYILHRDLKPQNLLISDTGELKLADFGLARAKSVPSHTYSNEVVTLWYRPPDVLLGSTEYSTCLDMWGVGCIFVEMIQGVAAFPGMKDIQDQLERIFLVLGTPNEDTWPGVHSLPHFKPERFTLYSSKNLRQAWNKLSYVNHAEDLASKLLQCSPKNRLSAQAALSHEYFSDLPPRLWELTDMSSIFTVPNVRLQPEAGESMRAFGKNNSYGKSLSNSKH
T6 sequence (Q9UK32 whole entry): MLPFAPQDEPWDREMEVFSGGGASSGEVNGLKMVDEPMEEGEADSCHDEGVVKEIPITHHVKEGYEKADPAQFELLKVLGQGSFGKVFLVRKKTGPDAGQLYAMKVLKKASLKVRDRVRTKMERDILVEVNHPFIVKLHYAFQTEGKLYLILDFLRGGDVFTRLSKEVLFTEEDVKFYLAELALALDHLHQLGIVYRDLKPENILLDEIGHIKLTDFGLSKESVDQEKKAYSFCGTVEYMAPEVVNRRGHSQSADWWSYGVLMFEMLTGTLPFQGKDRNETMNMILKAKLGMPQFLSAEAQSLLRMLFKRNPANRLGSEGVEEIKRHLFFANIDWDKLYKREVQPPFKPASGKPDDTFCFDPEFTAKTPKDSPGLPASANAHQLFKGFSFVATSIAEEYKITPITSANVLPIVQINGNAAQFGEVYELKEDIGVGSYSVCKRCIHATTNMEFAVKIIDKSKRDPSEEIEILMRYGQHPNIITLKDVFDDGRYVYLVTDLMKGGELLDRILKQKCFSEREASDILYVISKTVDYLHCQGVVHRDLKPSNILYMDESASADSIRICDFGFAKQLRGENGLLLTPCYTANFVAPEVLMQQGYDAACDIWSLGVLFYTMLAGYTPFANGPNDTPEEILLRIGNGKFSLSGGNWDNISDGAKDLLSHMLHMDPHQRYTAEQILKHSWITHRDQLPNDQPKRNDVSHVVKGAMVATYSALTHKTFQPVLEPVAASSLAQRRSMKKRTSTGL

`Cc1cnc2nc1Nc1cccc(c1)COCc1cc(ccc1OCCN1CCCC1)N2` [Compound 1] showed a remaining binding at 0.1 µM (CAMKK1) of 100%, a remaining binding at 0.1 µM (DAPK2) of 98% and a remaining binding at 0.1 µM (DCAMKL1) of 90%. For the same compound, the remaining binding at 0.1 µM (FGFR2) was 79%, the remaining binding at 0.1 µM (FLT3(D835V)) was 3.3% and the remaining binding at 0.1 µM (GRK2) was 90%. It also gave a remaining binding at 0.1 µM (GRK7) of 93%, a remaining binding at 0.1 µM (IRAK1) of 31% and a remaining binding at 0.1 µM (MARK2) of 89%. It also gave a remaining binding at 0.1 µM (MERTK) of 81%, a remaining binding at 0.1 µM (NDR2) of 92% and a remaining binding at 0.1 µM (NEK9) of 83%. For the same compound, the remaining binding at 0.1 µM (PFTK1) was 84%, the remaining binding at 0.1 µM (PIK3CA(H1047L)) was 74% and the remaining binding at 0.1 µM (PIP5K2B) was 96%. The remaining binding at 0.1 µM (PIP5K2C) was 76%, the remaining binding at 0.1 µM [1] was 96% and the remaining binding at 0.1 µM (SBK1) was 57%. It also gave a remaining binding at 0.1 µM (SNRK) of 78%, a remaining binding at 0.1 µM (TEC) of 94% and a remaining binding at 0.1 µM (TESK1) of 85%. The remaining binding at 0.1 µM (TNK1) was 38%, the remaining binding at 0.1 µM (TXK) was 94% and the remaining binding at 0.1 µM (VRK2) was 97%. It also gave a remaining binding at 0.1 µM (p38-beta) of 86%.
